Test results as given in article PMC11938010, “Positive Charge in an Antimalarial Compound Unlocks Broad-Spectrum Antibacterial Activity” (JACS Au, 2025).
Converted amounts (≈) assume the structure as drawn. Read-outs that look alike come from different tables or passages of the source.

Key:
[1] = system: Pseudomonas aeruginosa PA14; test: In vitro antibacterial activity (growth inhibition, OD600), P. aeruginosa; type: cell-based; conditions: PA14, 50 μM compound, Table 1 and main text, read-out: PA14 inh. at 50 μM
[2] = system: Mycobacterium tuberculosis (Mtb) strain H37Rv; test: microbe, parasite or virus in culture; type: cell-based; conditions: 168 h, 7 days, footnote b: not active at maximum solubility, read-out: MtbH37Rv MIC90
in vitro = conditions: human, HepG2 CC50, 48 h, MTT
[3] = system: Streptococcus pneumoniae (DSM20566); test: In vitro antibacterial activity (MIC), S. pneumoniae; type: cell-based; conditions: Streptococcus pneumoniae, DSM20566, read-out: Sp MIC95
Escherichia coli ∆tolC = test: microbe, parasite or virus in culture; type: cell-based; conditions: Escherichia coli
[4] = system: Plasmodium falciparum NF54; test: P. falciparum in vitro drug sensitivity assay on asexual blood stage parasites ([3H]-hypoxanthine incorporation); type: cell-based; conditions: Plasmodium falciparum, NF54, Table 1 and main text; read-out: PfNF54 IC50
Acinetobacter baumannii = test: In vitro antibacterial activity (growth inhibition, OD600), A. baumannii; type: cell-based; conditions: for MIC: read-out: Ab MIC95
[5] = system: Staphylococcus aureus ssp. Aureus; test: In vitro antibacterial activity (MIC), S. aureus; type: cell-based; conditions: Staphylococcus aureus, read-out: Sa MIC95
E. coli K12 = test: In vitro antibacterial activity (growth inhibition, OD600), E. coli wild-type; type: cell-based; conditions: Escherichia coli
[6] = Table S2, with standard deviation
[7] = 50 μM compound, Table 1 and main text, read-out: Ab inh. at 50 μM
[8] = K12, 50 μM compound, Table 1 and main text, read-out: EcK12 inh. at 50 μM
[9] = K12, read-out: EcK12 inh. at 50 μM, 50 μM compound, Table 1 and main text

Row | SMILES | inhibition at 50 µM [1] [%] | MIC90 [2] [µM] | CC50 (in vitro) [nM] | MIC ([3]; Table 1 and main text) [µM] | MIC [3, 6] [µM] | MIC (Escherichia coli ∆tolC; read-out: EcΔtolC MIC95) [µM] | MIC (Escherichia coli ∆tolC; read-out: Ec∆tolC MIC95 (µM)) [µM] | IC50 [4] [nM] | inhibition at 50 µM (Acinetobacter baumannii; [7]) [%] | MIC ([5]; Table 1 and main text) [µM] | MIC [5, 6] [µM] | inhibition at 50 µM (E. coli K12; [8]) [%] | MIC (Acinetobacter baumannii; Table S1, printed inside the inhibition column, with standard deviation, unit from Table 1 footnote) [µM] | MIC (Acinetobacter baumannii; printed inside the Ab inhibition column, Table 1 and main text) [µM] | inhibition at 50 µM (E. coli K12; K12, 50 µM, Table S1, with standard deviation, read-out: EcK12 inh. at 50 µM (%)) [%] | inhibition at 50 µM (E. coli K12; [9]) [%] | MIC (E. coli K12; K12, Table S1, printed inside the inhibition column, with standard deviation, unit from Table 1 footnote, read-out: EcK12 MIC95) [µM] | inhibition at 50 µM (Acinetobacter baumannii; 50 µM, Table S1, with standard deviation, read-out: Ab inh. at 50 µM (%)) [%]
1 | O=C(Nc1ccc(CNC2=NCCN2)cc1)c1cc(-c2cc(Cl)ccc2O)[nH]n1 [Compound 8C] | 10 | > 64 | > 50000 | > 50 | > 50 | 21.5 (≈ 8.83 µg/mL) | 21.5 (≈ 8.83 µg/mL) | 670 | 12 | 49 (≈ 20.1 µg/mL) | 49 ± 1 (≈ 20.1 µg/mL) | < 10 | – | – | – | – | – | –
2 | N=C(N)NCc1ccc(NC(=O)c2cc(-c3cc(Cl)ccc3O)[nH]n2)cc1 [Compound 8G, 5-(5-Chloro-2-hydroxyphenyl)-N-(4-(guanidinomethyl)phenyl)-1H-pyrazole-3-carboxamide] | 41 | > 64 | > 50000 | > 50 | > 50 | 47.5 (≈ 18.3 µg/mL) | 47.5 (≈ 18.3 µg/mL) | 420 | 19.9 | 22 (≈ 8.47 µg/mL) | 22 ± 1 (≈ 8.47 µg/mL) | 29 | – | – | – | – | – | –
3 | NCc1cc(NC(=O)c2cc(-c3cc(Cl)ccc3O)[nH]n2)cc(C(F)(F)F)c1 [Compound 9A, N-(3-(Aminomethyl)-5-(trifluoromethyl)phenyl)-5-(5-chloro-2-hydroxyphenyl)-1H-pyrazole-3-carboxamide] | < 10 | 32 (≈ 13.1 µg/mL) | 7000 | 11 (≈ 4.52 µg/mL) | 10.8 ± 2.5 (≈ 4.44 µg/mL) | 8 (≈ 3.29 µg/mL) | 8 ± 3 (≈ 3.29 µg/mL) | 82 | – | 12.1 (≈ 4.97 µg/mL) | 12.1 ± 0.6 (≈ 4.97 µg/mL) | < 10 | 48.9 ± 0.5 (≈ 20.1 µg/mL) | 49 (≈ 20.1 µg/mL) | – | – | – | –
4 | O=C(Nc1cc(CNC2=NCCN2)cc(C(F)(F)F)c1)c1cc(-c2cc(Cl)ccc2O)[nH]n1 [Compound 9C, 5-(5-Chloro-2-hydroxyphenyl)-N-(3-(((4,5-dihydro-1H-imidazol-2-yl)amino)methyl)-5-(trifluoromethyl)phenyl)-1H-pyrazole-3-carboxamide] | 18 | 16 (≈ 7.66 µg/mL) | > 50000 | 15 (≈ 7.18 µg/mL) | 15 ± 4 (≈ 7.18 µg/mL) | 7 (≈ 3.35 µg/mL) | 7 ± 1 (≈ 3.35 µg/mL) | 517 | 47 | 9 (≈ 4.31 µg/mL) | 9 ± 2 (≈ 4.31 µg/mL) | – | – | – | 84 ± 2 | < 10 | – | –
5 | N=C(N)NCc1cc(NC(=O)c2cc(-c3cc(Cl)ccc3O)[nH]n2)cc(C(F)(F)F)c1 [Compound 9G] | 50 | 32 (≈ 14.5 µg/mL) | > 50000 | > 50 | > 50 | 5 (≈ 2.26 µg/mL) | 5 ± 2 (≈ 2.26 µg/mL) | 78 | 59 | 8 (≈ 3.62 µg/mL) | 8 ± 3 (≈ 3.62 µg/mL) | – | – | – | – | – | 46 ± 2 (≈ 20.8 µg/mL) | –
6 | NCc1ccc(NC(=O)c2cc(-c3cc(Cl)ccc3O)[nH]n2)cc1C(F)(F)F [Compound 10A] | < 10 | 64 (≈ 26.3 µg/mL) | 13000 | 23 (≈ 9.45 µg/mL) | 23 ± 3 (≈ 9.45 µg/mL) | 22.9 (≈ 9.41 µg/mL) | 22.9 ± 0.1 (≈ 9.41 µg/mL) | 150 | 86 | 29 (≈ 11.9 µg/mL) | 29 ± 3 (≈ 11.9 µg/mL) | 61 | – | – | – | – | – | –
7 | O=C(Nc1ccc(CNC2=NCCN2)c(C(F)(F)F)c1)c1cc(-c2cc(Cl)ccc2O)[nH]n1 [Compound 10C, 5-(5-Chloro-2-hydroxyphenyl)-N-(4-(((4,5-dihydro-1H-imidazol-2-yl)amino)methyl)-3-(trifluoromethyl)phenyl)-1H-pyrazole-3-carboxamide] | 29 | 16 (≈ 7.66 µg/mL) | > 50000 | 14 (≈ 6.7 µg/mL) | 14 ± 2 (≈ 6.7 µg/mL) | 5.5 (≈ 2.63 µg/mL) | 5.5 ± 0.8 (≈ 2.63 µg/mL) | 404 | 47 | 8 (≈ 3.83 µg/mL) | 8 ± 2 (≈ 3.83 µg/mL) | – | – | – | – | 77 | – | 49.6 ± 0.9
